Assay results: patent publication US20170007561A1, “CONTEMPORANEOUS, HETEROGENEOUSLY-ORIENTED, MULTI-TARGETED THERAPEUTIC MODIFICATION AND/OR MODULATION OF DISEASE BY ADMINISTRATION OF SULFUR-CONTAINING, AMINO ACID-SPECIFIC SMALL MOLECULES” (BioNumerik Pharmaceuticals, Inc., priority 2014, published 2017)
Like-named read-outs stand apart in the source and are kept apart here. Each block holds one molecule with its values, some of them ahead of it.

Assays:
[1] = test system: mammalian thioredoxin reductase (TrxR); conditions: cited from earlier work
[2] = single oral dose of 100 mg to healthy volunteers; cited from earlier work
[3] = target: T1, TrxR/Trx system (Homo sapiens, UniProt P10599); experiment: TrxR/Trx NADPH oxidation assay; format: biochemical; conditions: increasing concentrations of test substance
T1 construct: purchased Sigma (Trx); American Diagnostica (bovine TrxR)
T1 sequence (P10599 1-105): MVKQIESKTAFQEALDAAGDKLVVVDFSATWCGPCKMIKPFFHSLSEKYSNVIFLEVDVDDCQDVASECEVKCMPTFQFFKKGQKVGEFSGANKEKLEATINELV
Source text: (Note: error bars are small and may be obscured by the symbols). […] (Note: error bars were omitted but assays were run in quadruplicate with typical errors of 5-8% between individual replicates). […] Panel D: Initial velocity reaction rates corresponding to progress curves shown in Panel C. With time, Trx-mesna and Trx-GSH are converted back to apo-Trx by Trx reductase (see also, FIG. 69, Panel E).

[4] = target: T2, bovine TrxR (Bos taurus, UniProt O62768); experiment: TrxR NADPH oxidation assay without Trx (Reaction A); format: biochemical; conditions: TrxR alone + NADPH, no Trx
T2 construct: purchased American Diagnostica
T2 sequence (O62768 1-499): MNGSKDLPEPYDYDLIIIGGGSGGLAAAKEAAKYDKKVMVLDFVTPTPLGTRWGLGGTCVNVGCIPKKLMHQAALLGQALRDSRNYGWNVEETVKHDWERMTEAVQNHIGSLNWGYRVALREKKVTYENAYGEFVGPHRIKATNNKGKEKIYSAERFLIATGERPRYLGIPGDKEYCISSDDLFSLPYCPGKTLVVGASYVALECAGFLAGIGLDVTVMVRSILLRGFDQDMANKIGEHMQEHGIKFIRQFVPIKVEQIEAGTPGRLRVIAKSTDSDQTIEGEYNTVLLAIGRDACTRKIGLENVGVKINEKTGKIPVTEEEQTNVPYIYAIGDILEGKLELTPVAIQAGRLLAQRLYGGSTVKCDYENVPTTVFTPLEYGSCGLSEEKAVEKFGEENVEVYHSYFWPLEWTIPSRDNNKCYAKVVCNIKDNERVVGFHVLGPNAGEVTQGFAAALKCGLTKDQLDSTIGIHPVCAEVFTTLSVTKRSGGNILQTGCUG

[5] = target: T790M EGFR kinase (Homo sapiens, UniProt P00533, T790M); experiment: EGFR kinase assay (ADP-glo, polyGT substrate), T790M mutant; format: biochemical; conditions: for IC50: read-out: IC50, inhibition of T790M EGFR kinase; for effect on Erlotinib inhibition of T790M EGFR kinase activity: heteroconjugate in combination with Erlotinib, 10 μM and/or 100 μM ATP
[6] = target: T3, glutathione reductase (GR) (Homo sapiens, UniProt P00390); conditions: cited from earlier work
T3 sequence (P00390 44-522): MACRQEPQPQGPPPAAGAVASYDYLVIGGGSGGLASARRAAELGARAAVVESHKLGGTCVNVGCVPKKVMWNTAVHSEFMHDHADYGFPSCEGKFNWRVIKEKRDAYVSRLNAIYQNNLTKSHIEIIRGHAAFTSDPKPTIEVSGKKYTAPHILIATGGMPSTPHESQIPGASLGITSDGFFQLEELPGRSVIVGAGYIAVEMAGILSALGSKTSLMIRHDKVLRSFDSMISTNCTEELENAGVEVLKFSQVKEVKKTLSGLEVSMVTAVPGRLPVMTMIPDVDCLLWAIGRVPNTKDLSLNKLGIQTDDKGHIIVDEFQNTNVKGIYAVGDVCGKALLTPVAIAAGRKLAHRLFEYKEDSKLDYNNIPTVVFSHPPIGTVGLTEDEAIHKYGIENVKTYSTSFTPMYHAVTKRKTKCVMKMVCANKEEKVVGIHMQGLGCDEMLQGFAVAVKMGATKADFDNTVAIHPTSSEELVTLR

[7] = test system: bovine brain microtubule protein (α-/β-tubulin); experiment: Microtubule protein polymerization assay (OD350); format: biochemical; conditions: for protection against monoaquocisplatin-induced loss of microtubule protein polymerization: preincubated with monoaquocisplatin (36 μM), mesna or cysteine 200 μM; for effect on microtubule protein polymerization: sodium chloride 32 mM control
[8] = target: ErbB-2 (Homo sapiens, UniProt P04626); parameters: key: the “+” and “−” symbols signify the ability and inability to activate each of the ErbB receptors, respectively; the “+” and “−” symbols signify the ability and inability to activate each of the ErbB receptors, respectively; conditions: cited from earlier work
[9] = target: ErbB-3 (Homo sapiens, UniProt P21860); parameters: key: the “+” and “−” symbols signify the ability and inability to activate each of the ErbB receptors, respectively; the “+” and “−” symbols signify the ability and inability to activate each of the ErbB receptors, respectively; conditions: cited from earlier work
[10] = target: ErbB-4 (Homo sapiens, UniProt Q15303); parameters: key: the “+” and “−” symbols signify the ability and inability to activate each of the ErbB receptors, respectively; the “+” and “−” symbols signify the ability and inability to activate each of the ErbB receptors, respectively; conditions: cited from earlier work
ErbB-4, sequence (Q15303 26-1308, species assumed): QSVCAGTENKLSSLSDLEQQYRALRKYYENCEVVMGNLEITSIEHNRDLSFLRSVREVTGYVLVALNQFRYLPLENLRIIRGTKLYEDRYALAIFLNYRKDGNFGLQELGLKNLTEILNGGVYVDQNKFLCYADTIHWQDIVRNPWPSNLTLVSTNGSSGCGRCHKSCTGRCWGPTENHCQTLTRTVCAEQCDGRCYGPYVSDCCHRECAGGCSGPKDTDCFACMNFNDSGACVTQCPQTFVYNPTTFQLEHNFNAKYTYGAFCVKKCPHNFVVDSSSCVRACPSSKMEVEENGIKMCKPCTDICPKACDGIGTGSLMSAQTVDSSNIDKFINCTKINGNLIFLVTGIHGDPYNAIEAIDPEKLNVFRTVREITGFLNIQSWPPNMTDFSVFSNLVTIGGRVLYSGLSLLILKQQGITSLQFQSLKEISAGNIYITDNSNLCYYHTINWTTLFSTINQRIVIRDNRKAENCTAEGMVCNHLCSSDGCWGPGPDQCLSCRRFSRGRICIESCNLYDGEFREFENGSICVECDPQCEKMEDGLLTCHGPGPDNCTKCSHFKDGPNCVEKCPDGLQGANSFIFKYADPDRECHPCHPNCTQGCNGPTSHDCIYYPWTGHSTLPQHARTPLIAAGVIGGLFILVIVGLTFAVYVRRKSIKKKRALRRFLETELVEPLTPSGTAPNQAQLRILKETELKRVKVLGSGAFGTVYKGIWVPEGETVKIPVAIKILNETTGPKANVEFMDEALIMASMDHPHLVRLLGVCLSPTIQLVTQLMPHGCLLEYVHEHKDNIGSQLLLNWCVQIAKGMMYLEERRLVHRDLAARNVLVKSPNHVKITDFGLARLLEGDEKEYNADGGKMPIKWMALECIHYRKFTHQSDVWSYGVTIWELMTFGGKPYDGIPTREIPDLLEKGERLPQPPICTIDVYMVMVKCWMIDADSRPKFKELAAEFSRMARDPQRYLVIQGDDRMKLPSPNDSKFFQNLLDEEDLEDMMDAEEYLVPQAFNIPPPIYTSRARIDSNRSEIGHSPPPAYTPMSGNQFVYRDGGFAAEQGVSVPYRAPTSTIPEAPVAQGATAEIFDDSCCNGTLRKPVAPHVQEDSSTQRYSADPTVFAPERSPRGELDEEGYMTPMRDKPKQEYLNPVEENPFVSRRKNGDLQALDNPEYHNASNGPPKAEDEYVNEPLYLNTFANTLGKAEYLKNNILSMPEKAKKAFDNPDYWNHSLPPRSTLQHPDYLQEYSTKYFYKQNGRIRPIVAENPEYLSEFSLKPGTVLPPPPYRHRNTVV

[11] = target: ErbB-1 (Homo sapiens, UniProt P00533); conditions: cited from earlier work

Molecule: CC1=C(/C=C/C(C)=C/C=C/C(C)=C\C(=O)O)C(C)(C)CCC1 [13-cis-retinoic acid]
Inhibition of TrxR [1]: irreversible inhibition of TrxR

Molecule: C#Cc1cccc(Nc2ncnc3cc(OCCOC)c(OCCOC)cc23)c1 [Erlotinib, reference compound]
Cmax [2]: 1390 ng/mL

Molecule: NC(CSSCCS(=O)(=O)O)C(=O)O (stereo not drawn) [MSSC, mesna-cysteine disulfide]
NADPH oxidation by TrxR and Trx [3]: increases
NADPH Oxidation, Reaction A ([4]; disulfide 0.5 mM): 0.2 ± 0.03 nmol/min/mL

Molecule: NC(CSSCCS(=O)(=O)O)C(=O)NC(CCC(=O)O)C(=O)O (stereo not drawn) [MSSCE, mesna-cysteinyl glutamate disulfide]
NADPH Oxidation, Reaction A ([4]; disulfide 0.5 mM): 0.3 ± 0.02 nmol/min/mL

Molecule: NC(CSSCCS(=O)(=O)O)C(=O)NCC(=O)O (stereo not drawn) [MSSCG, mesna-cysteinyl glycine disulfide]
NADPH Oxidation, Reaction A ([4]; disulfide 0.5 mM): 0.2 ± 0.04 nmol/min/mL

Molecule: NC(CSSCCS(=O)(=O)O)C(=O)O (stereo not drawn) [Mesna-Cysteine]
IC50 ([5]; 10 μM ATP): 3.76 ± 0.26 mM
IC50 ([5]; 100 μM ATP): 3.03 ± 0.28 mM
effect on Erlotinib inhibition of T790M EGFR kinase activity [5]: effectively potentiated

Molecule: NC(CSSCCS(=O)(=O)O)C(=O)NC(CCC(=O)O)C(=O)O (stereo not drawn) [Mesna-Cysteinylglutamate]
IC50 ([5]; 10 μM ATP): 1.09 ± 0.19 mM
IC50 ([5]; 100 μM ATP): 1.05 ± 0.08 mM
effect on Erlotinib inhibition of T790M EGFR kinase activity [5]: effectively potentiated

Molecule: NC(CSSCCS(=O)(=O)O)C(=O)NCC(=O)O (stereo not drawn) [Mesna-Cysteinylglycine]
IC50 ([5]; 10 μM ATP): 0.51 ± 0.01 mM
IC50 ([5]; 100 μM ATP): 0.41 ± 0.05 mM
effect on Erlotinib inhibition of T790M EGFR kinase activity [5]: effectively potentiated

Molecule: NC(CCC(=O)NC(CSSCCS(=O)(=O)O)C(=O)NCC(=O)O)C(=O)O (stereo not drawn) [Mesna-Glutathione]
IC50 ([5]; 10 μM ATP): 1.28 ± 0.29 mM
IC50 ([5]; 100 μM ATP): 1.17 ± 0.01 mM
effect on Erlotinib inhibition of T790M EGFR kinase activity [5]: effectively potentiated

Molecule: CS(=O)(=O)OCCCCOS(C)(=O)=O [busulfan]
Inhibition of TrxR [1]: irreversibly inhibited TrxR in a concentration- and time-dependent manner
Inhibition of GR [6]: not GR

Molecule: N.N.O=C([O-])C1(C(=O)[O-])CCC1.[Pt+2] [carboplatin]
Inhibition of TrxR [1]: could not inhibit either TrxR or GR
Inhibition of GR [6]: could not inhibit either TrxR or GR

Molecule: O=NN(CCCl)C(=O)NCCCl [carmustine]
Inhibition of TrxR [1]: can inhibit both GR and Trx
Inhibition of GR [6]: can inhibit both GR and Trx

Molecule: O=C(O)CCCc1ccc(N(CCCl)CCCl)cc1 [chlorambucil]
Inhibition of TrxR [1]: irreversibly inhibited TrxR in a concentration- and time-dependent manner
Inhibition of GR [6]: not GR

Molecule: N.N.[Cl][Pt][Cl] [cisplatin]
Inhibition of TrxR [1]: irreversibly inhibited TrxR
Inhibition of GR [6]: not GR

Molecule: O=P1(N(CCCl)CCCl)NCCCO1 (stereo not drawn) [cyclophosphamide]
Inhibition of TrxR [1]: irreversibly inhibited TrxR in a concentration- and time-dependent manner
Inhibition of GR [6]: not GR

Molecule: N[C@@H](CS)C(=O)O [cysteine, reference compound]
effect alone on microtubule protein polymerization ([7]; in the absence of monoaquocisplatin): neither mesna nor cysteine alone (in the absence of monoaquocisplatin) had any effect

Molecule: COc1cccc2c1C(=O)c1c(O)c3c(c(O)c1C2=O)C[C@@](O)(C(C)=O)C[C@@H]3O[C@H]1C[C@H](N)[C@H](O)[C@H](C)O1 [daunorubicin]
Inhibition of TrxR [1]: not inhibitors of TrxR

Molecule: N[C@@H](CCC(=O)O)C(=O)O [glutamate, reference compound]
protection against monoaquocisplatin-induced loss of microtubule protein polymerization [7]: not seen

Molecule: NC(=O)CC[C@H](N)C(=O)O [glutamine, reference compound]
protection against monoaquocisplatin-induced loss of microtubule protein polymerization [7]: not seen

Molecule: O=P1(NCCCl)OCCCN1CCCl (stereo not drawn) [ifosfamide]
Inhibition of TrxR [1]: inhibited TrxR

Molecule: N[C@@H](Cc1ccc(N(CCCl)CCCl)cc1)C(=O)O [melphalan]
Inhibition of TrxR [1]: irreversibly inhibited TrxR in a concentration- and time-dependent manner
Inhibition of GR [6]: not GR

Molecule: N.N.O.[Cl][Pt+] [monoaquocisplatin, reference compound]
effect of extended exposure on microtubule protein polymerization ([7]; monoaquocisplatin 36 μM): loss of microtubule protein's ability to polymerize

Molecule: O=C1[O][Pt]2([NH][C@@H]3CCCC[C@H]3[NH]2)[O]C1=O [oxaliplatin]
Inhibition of TrxR [1]: irreversibly inhibited TrxR
Inhibition of GR [6]: not GR

Molecule: [Cl-].[Na+] [sodium chloride]
effect on microtubule protein polymerization [7]: did not inhibit
effect on microtubule protein polymerization ([7]; listed as NaCl): no effect

Molecule: N.N.[Cl][Pt+2][Cl] [transplatin]
Inhibition of TrxR [1]: irreversibly inhibited TrxR
Inhibition of GR [6]: not GR

Molecule: EGF: growth factor ligand of ErbB receptors
ability to activate ErbB-2 [8]: −
ability to activate ErbB-3 [9]: −
ability to activate ErbB-4 [10]: −

Molecule: HB-EGF: growth factor ligand of ErbB receptors
ability to activate ErbB-1 [11]: +
ability to activate ErbB-2 [8]: −
ability to activate ErbB-3 [9]: −
ability to activate ErbB-4 [10]: +

NADPH Oxidation, Reaction A ([4]; insulin 86 μM): 0.3 ± .03 nmol/min/mL
Molecule: Insulin: positive control disulfide substrate of Trx [reference compound]

Molecule: TGF-α: growth factor ligand of ErbB receptors
ability to activate ErbB-2 [8]: −
ability to activate ErbB-3 [9]: −
ability to activate ErbB-4 [10]: −

Molecule: amphiregulin: growth factor ligand of ErbB receptors
ability to activate ErbB-1 [11]: +
ability to activate ErbB-2 [8]: −
ability to activate ErbB-3 [9]: −
ability to activate ErbB-4 [10]: −

Molecule: betacellulin: growth factor ligand of ErbB receptors
ability to activate ErbB-1 [11]: +
ability to activate ErbB-2 [8]: −
ability to activate ErbB-3 [9]: −
ability to activate ErbB-4 [10]: +

Molecule: epiregulin: growth factor ligand of ErbB receptors
ability to activate ErbB-1 [11]: +
ability to activate ErbB-2 [8]: −
ability to activate ErbB-3 [9]: −
ability to activate ErbB-4 [10]: +

Molecule: neuregulin 1
ability to activate ErbB-1 [11]: −
ability to activate ErbB-2 [8]: −
ability to activate ErbB-3 [9]: +
ability to activate ErbB-4 [10]: +

B1: epigen: growth factor ligand of ErbB receptors (protein, UniProt Q6UW88 23-154, looked up)
Epigen: AAVTVTPPITAQQGNWTVNKTEADNIEGPIALKFSHLCLEDHNSYCINGACAFHHELEKAICRCFTGYTGERCEHLTLTSYAVDSYEKYIAIGIGVGLLLSGFLVIFYCYIRKRCLKLKSPYNVCSGERRPL
ability to activate ErbB-1 [11]: +
ability to activate ErbB-2 [8]: −
ability to activate ErbB-3 [9]: −
ability to activate ErbB-4 [10]: −
